Legend:
Type in all cases: in vivo
Setaria faberi (SETFA) [1] = assay: Pre-emergence herbicidal test; details: 1000 g/ha, evaluated after 13 days
[2] = tested on: Abutilon theophrasti (ABUTH); assay: Pre-emergence herbicidal test; details: 1000 g/ha, evaluated after 13 days
Zea mays (ZEAMX) [3] = assay: Post-emergence herbicidal test; details: 1000 g/ha unless otherwise stated, evaluated after 13 days
Procedure, shortened: (§1)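 Scores on a five-point scale: 5=81-100%, 4=61-80%, 3=41-60%, 2=21-40%, 1=10-20%, 0=0% damage. These are assessed 13 days after spraying at 1000 g/ha unless stated.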

[4] = tested on: Abutilon theophrasti (ABUTH); assay: Post-emergence herbicidal test; details: 1000 g/ha unless otherwise stated, evaluated after 13 days
Procedure, shortened: as §1

[5] = tested on: Echinochloa crus-galli (ECHCG); assay: Post-emergence herbicidal test; details: 1000 g/ha unless otherwise stated, evaluated after 13 days
Procedure, shortened: as §1

[6] = tested on: Ipomoea hederacea (IPOHE); assay: Post-emergence herbicidal test; details: 1000 g/ha unless otherwise stated, evaluated after 13 days
Procedure, shortened: as §1

Setaria faberi (SETFA) [7] = assay: Post-emergence herbicidal test; details: 1000 g/ha unless otherwise stated, evaluated after 13 days
Procedure, shortened: as §1

[8] = tested on: Amaranthus retoflexus (AMARE); assay: Post-emergence herbicidal test; details: 1000 g/ha unless otherwise stated, evaluated after 13 days
Procedure, shortened: as §1

Zea mays (ZEAMX) [9] = assay: Pre-emergence herbicidal test; details: 1000 g/ha, evaluated after 13 days
[10] = tested on: Echinochloa crus-galli (ECHCG); assay: Pre-emergence herbicidal test; details: 1000 g/ha, evaluated after 13 days
[11] = tested on: Ipomoea hederacea (IPOHE); assay: Pre-emergence herbicidal test; details: 1000 g/ha, evaluated after 13 days
[12] = tested on: Amaranthus retoflexus (AMARE); assay: Pre-emergence herbicidal test; details: 1000 g/ha, evaluated after 13 days

CCOC(=O)c1nn(-c2ccc(OC(F)(F)F)cc2)c2ccc(CC(C)C)c(S(C)(=O)=O)c2c1=O [Compound P45, ethyl 6-isobutyl-5-methylsulfonyl-4-oxo-1-[4-(trifluoromethoxy)phenyl]cinnoline-3-carboxylate]
1 (1=10-20%): percentage damage caused to the plant, ZEAMX (five-point scale) (Zea mays (ZEAMX) [3]) | percentage damage caused to the plant, ECHCG (five-point scale) [5] | percentage damage caused to the plant, SETFA (five-point scale) (Setaria faberi (SETFA) [7])
0 (0=0%): percentage damage caused to the plant, five-point scale, SETFA (Setaria faberi (SETFA) [1]) | percentage damage caused to the plant, five-point scale, ABUTH [2] | percentage damage caused to the plant, ABUTH (five-point scale) [4] | percentage damage caused to the plant, IPOHE (five-point scale) [6] | percentage damage caused to the plant, AMARE (five-point scale) [8] | percentage damage caused to the plant, five-point scale, ZEAMX (Zea mays (ZEAMX) [9]) | percentage damage caused to the plant, five-point scale, ECHCG [10] | percentage damage caused to the plant, five-point scale, IPOHE [11] | percentage damage caused to the plant, five-point scale, AMARE [12]

CCOC(=O)c1nn(-c2ccc(OC(F)(F)F)cc2)c2cc(CC(C)C)cc(S(C)(=O)=O)c2c1=O [Compound P46, ethyl 7-isobutyl-5-methysulfonyl-4-oxo-1-[4-(trifluoromethoxy)phenyl]cinnoline-3-carboxylate]
0 (0=0%): percentage damage caused to the plant, five-point scale, SETFA (Setaria faberi (SETFA) [1]) | percentage damage caused to the plant, AMARE (five-point scale) [8] | percentage damage caused to the plant, five-point scale, ECHCG [10] | percentage damage caused to the plant, five-point scale, IPOHE [11] | percentage damage caused to the plant, five-point scale, AMARE [12]
2 (2=21-40%): percentage damage caused to the plant, five-point scale, ZEAMX (Zea mays (ZEAMX) [9])
1 (1=10-20%): percentage damage caused to the plant, five-point scale, ABUTH [2] | percentage damage caused to the plant, ZEAMX (five-point scale) (Zea mays (ZEAMX) [3]) | percentage damage caused to the plant, ABUTH (five-point scale) [4] | percentage damage caused to the plant, ECHCG (five-point scale) [5] | percentage damage caused to the plant, IPOHE (five-point scale) [6] | percentage damage caused to the plant, SETFA (five-point scale) (Setaria faberi (SETFA) [7])

CCOC(=O)c1nn(-c2ccc(OC(F)(F)F)cc2)c2ccc(C#N)c(S(C)(=O)=O)c2c1=O [Compound P47, ethyl 6-cyano-5-methylsulfonyl-4-oxo-1-[4-(trifluoromethoxy)phenyl]cinnoline-3-carboxylate]
0 (0=0%): percentage damage caused to the plant, five-point scale, SETFA (Setaria faberi (SETFA) [1]) | percentage damage caused to the plant, five-point scale, ABUTH [2] | percentage damage caused to the plant, ZEAMX (five-point scale) (Zea mays (ZEAMX) [3]) | percentage damage caused to the plant, ABUTH (five-point scale) [4] | percentage damage caused to the plant, IPOHE (five-point scale) [6] | percentage damage caused to the plant, AMARE (five-point scale) [8] | percentage damage caused to the plant, five-point scale, ZEAMX (Zea mays (ZEAMX) [9]) | percentage damage caused to the plant, five-point scale, ECHCG [10] | percentage damage caused to the plant, five-point scale, IPOHE [11] | percentage damage caused to the plant, five-point scale, AMARE [12]
1 (1=10-20%): percentage damage caused to the plant, ECHCG (five-point scale) [5] | percentage damage caused to the plant, SETFA (five-point scale) (Setaria faberi (SETFA) [7])

CCOC(=O)c1nn(-c2ccc(OC(F)(F)F)cc2)c2cc(C#N)cc(S(C)(=O)=O)c2c1=O [Compound P48, ethyl 7-cyano-5-methylsulfonyl-4-oxo-1-[4-(trifluoromethoxy)phenyl]cinnoline-3-carboxylate]
0 (0=0%): percentage damage caused to the plant, five-point scale, SETFA (Setaria faberi (SETFA) [1]) | percentage damage caused to the plant, five-point scale, ABUTH [2] | percentage damage caused to the plant, ZEAMX (five-point scale) (Zea mays (ZEAMX) [3]) | percentage damage caused to the plant, ABUTH (five-point scale) [4] | percentage damage caused to the plant, ECHCG (five-point scale) [5] | percentage damage caused to the plant, IPOHE (five-point scale) [6] | percentage damage caused to the plant, SETFA (five-point scale) (Setaria faberi (SETFA) [7]) | percentage damage caused to the plant, AMARE (five-point scale) [8] | percentage damage caused to the plant, five-point scale, ZEAMX (Zea mays (ZEAMX) [9]) | percentage damage caused to the plant, five-point scale, ECHCG [10] | percentage damage caused to the plant, five-point scale, IPOHE [11] | percentage damage caused to the plant, five-point scale, AMARE [12]

CCOC(=O)c1nn(-c2ccc(OC(F)(F)F)cc2)c2ccc(OC)c(S(C)(=O)=O)c2c1=O [Compound P49, ethyl 6-methoxy-5-methylsulfonyl-4-oxo-1-[4-(trifluoromethoxy)phenyl]cinnoline-3-carboxylate]
0 (0=0%): percentage damage caused to the plant, five-point scale, SETFA (Setaria faberi (SETFA) [1]) | percentage damage caused to the plant, five-point scale, ABUTH [2] | percentage damage caused to the plant, ZEAMX (five-point scale) (Zea mays (ZEAMX) [3]) | percentage damage caused to the plant, ABUTH (five-point scale) [4] | percentage damage caused to the plant, AMARE (five-point scale) [8] | percentage damage caused to the plant, five-point scale, ZEAMX (Zea mays (ZEAMX) [9]) | percentage damage caused to the plant, five-point scale, ECHCG [10] | percentage damage caused to the plant, five-point scale, IPOHE [11] | percentage damage caused to the plant, five-point scale, AMARE [12]
1 (1=10-20%): percentage damage caused to the plant, ECHCG (five-point scale) [5] | percentage damage caused to the plant, IPOHE (five-point scale) [6] | percentage damage caused to the plant, SETFA (five-point scale) (Setaria faberi (SETFA) [7])

CCOC(=O)c1nn(-c2ccc(OC(F)(F)F)cc2)c2ccc(F)c(S(C)(=O)=O)c2c1=O [Compound P51, ethyl 6-fluoro-5-methylsulfonyl-4-oxo-1-[4-(trifluoromethoxy)phenyl]cinnoline-3-carboxylate]
0 (0=0%): percentage damage caused to the plant, five-point scale, SETFA (Setaria faberi (SETFA) [1]) | percentage damage caused to the plant, five-point scale, ABUTH [2] | percentage damage caused to the plant, ZEAMX (five-point scale) (Zea mays (ZEAMX) [3]) | percentage damage caused to the plant, ABUTH (five-point scale) [4] | percentage damage caused to the plant, ECHCG (five-point scale) [5] | percentage damage caused to the plant, IPOHE (five-point scale) [6] | percentage damage caused to the plant, SETFA (five-point scale) (Setaria faberi (SETFA) [7]) | percentage damage caused to the plant, AMARE (five-point scale) [8] | percentage damage caused to the plant, five-point scale, ZEAMX (Zea mays (ZEAMX) [9]) | percentage damage caused to the plant, five-point scale, ECHCG [10] | percentage damage caused to the plant, five-point scale, IPOHE [11] | percentage damage caused to the plant, five-point scale, AMARE [12]

CCOC(=O)c1nn(-c2ccc(OC(F)(F)F)cc2)c2cc(F)cc(S(C)(=O)=O)c2c1=O [Compound P52, ethyl 7-fluoro-5-methylsulfonyl-4-oxo-1-[4-(trifluoromethoxy)phenyl]cinnoline-3-carboxylate]
4 (4=61-80%): percentage damage caused to the plant, five-point scale, SETFA (Setaria faberi (SETFA) [1])
3 (3=41-60%): percentage damage caused to the plant, five-point scale, ECHCG [10]
0 (0=0%): percentage damage caused to the plant, IPOHE (five-point scale) [6] | percentage damage caused to the plant, five-point scale, ZEAMX (Zea mays (ZEAMX) [9]) | percentage damage caused to the plant, five-point scale, IPOHE [11]
1 (1=10-20%): percentage damage caused to the plant, five-point scale, ABUTH [2] | percentage damage caused to the plant, ZEAMX (five-point scale) (Zea mays (ZEAMX) [3]) | percentage damage caused to the plant, ABUTH (five-point scale) [4] | percentage damage caused to the plant, AMARE (five-point scale) [8] | percentage damage caused to the plant, five-point scale, AMARE [12]
2 (2=21-40%): percentage damage caused to the plant, ECHCG (five-point scale) [5] | percentage damage caused to the plant, SETFA (five-point scale) (Setaria faberi (SETFA) [7])

CCOC(=O)c1nn(-c2ccc(OC(F)(F)F)cc2)c2cc(F)cc(SC)c2c1=O [Compound P54, ethyl 7-fluoro-5-methylsulfanyl-4-oxo-1-[4-(trifluoromethoxy)phenyl]cinnoline-3-carboxylate]
1 (1=10-20%): percentage damage caused to the plant, five-point scale, ABUTH [2] | percentage damage caused to the plant, ZEAMX (five-point scale) (Zea mays (ZEAMX) [3]) | percentage damage caused to the plant, ABUTH (five-point scale) [4] | percentage damage caused to the plant, IPOHE (five-point scale) [6] | percentage damage caused to the plant, five-point scale, AMARE [12]
2 (2=21-40%): percentage damage caused to the plant, five-point scale, SETFA (Setaria faberi (SETFA) [1]) | percentage damage caused to the plant, AMARE (five-point scale) [8] | percentage damage caused to the plant, five-point scale, ECHCG [10]
0 (0=0%): percentage damage caused to the plant, ECHCG (five-point scale) [5] | percentage damage caused to the plant, SETFA (five-point scale) (Setaria faberi (SETFA) [7]) | percentage damage caused to the plant, five-point scale, ZEAMX (Zea mays (ZEAMX) [9]) | percentage damage caused to the plant, five-point scale, IPOHE [11]

CCOC(=O)c1nn(-c2ccc(OC(F)(F)F)cc2)c2cc(C#N)cc(SC)c2c1=O [Compound P55, ethyl 7-cyano-5-methylsulfanyl-4-oxo-1-[4-(trifluoromethoxy)phenyl]cinnoline-3-carboxylate]
1 (1=10-20%): percentage damage caused to the plant, five-point scale, ABUTH [2]
0 (0=0%): percentage damage caused to the plant, five-point scale, SETFA (Setaria faberi (SETFA) [1]) | percentage damage caused to the plant, ZEAMX (five-point scale) (Zea mays (ZEAMX) [3]) | percentage damage caused to the plant, ABUTH (five-point scale) [4] | percentage damage caused to the plant, ECHCG (five-point scale) [5] | percentage damage caused to the plant, IPOHE (five-point scale) [6] | percentage damage caused to the plant, SETFA (five-point scale) (Setaria faberi (SETFA) [7]) | percentage damage caused to the plant, AMARE (five-point scale) [8] | percentage damage caused to the plant, five-point scale, ZEAMX (Zea mays (ZEAMX) [9]) | percentage damage caused to the plant, five-point scale, ECHCG [10] | percentage damage caused to the plant, five-point scale, IPOHE [11] | percentage damage caused to the plant, five-point scale, AMARE [12]
